Where two headings read alike, the source gives them in different places.
Experiments:
cIAP2-BIR2 = cIAP2-BIR2 (Homo sapiens (Human), UniProt Q13489); experiment: BIR binding assay (FRET competition), cIAP2 BIR2
Outline: (§1)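 Each domain is run separately at its own level: 50 nM cIAP1-BIR3, 100 nM XIAP-BIR3, 325 nM for cIAP1-BIR2 or cIAP2-BIR2. Probe is a 200 nM fluorescent SMAC peptide, and the value is IC50 from FRET competition.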

[1] = test system: Jurkat HIV-luciferase clones; experiment: Jurkat latency reversal assay; format: cell-based; conditions: Homo sapiens, 48 h; Jurkat latency reversal assay potency; read-out: Jurkat pEC50 (converted)
Outline: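 Luminescence read-out: Steady-Glo after 48 h, 37° C, on mixed Jurkat HIV-luc clones (C16, 115, N6; 5,000 cells/well total). Cpd 14-pt 3-fold dilutions, duplicate, top 10 μM, 0.5% DMSO. EC50 + max % activation vs vehicle via 4-parameter fit.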

cIAP1-BIR3 = cIAP1-BIR3 (Homo sapiens (Human), UniProt Q13490); experiment: BIR binding assay (FRET competition), cIAP1 BIR3; conditions: for cIAP1 BIR3 vs BIR2 separation window: fold separation (FS) for cIAP1
Outline: as §1

cIAP2-BIR3 = cIAP2-BIR3 (Homo sapiens (Human), UniProt Q13489); experiment: BIR binding assay (FRET competition), cIAP2 BIR3; conditions: for cIAP2 BIR3 vs BIR2 separation window: fold separation (FS) for cIAP2
cIAP1-BIR2 = cIAP1-BIR2 (Homo sapiens (Human), UniProt Q13490); experiment: BIR binding assay (FRET competition), cIAP1 BIR2
Outline: as §1

XIAP-BIR2 = XIAP-BIR2 (Homo sapiens (Human), UniProt P98170); experiment: BIR binding assay (FRET competition), XIAP BIR2
Description: The BIR domain binding assays are FRET based competition assays that utilize His-tagged versions of each of the BIR2 and BIR3 domains from cIAP1, cIAP2, and XIAP (each domain assayed separately) each at a custom optimal concentration and a probe, 200 nM SMAC/DIABLO peptide AVPIAQKSE labelled with AlexaFluor647 (part #crb 1110326h, Discovery Peptides). The assay is conducted in 50 mM HEPES, […], 1 mM CHAPS, 5% Glycerol, 1 mM DTT, in dI water with a final pH of 7.4 and final volume of 20 uL. Final protein domain concentrations are: 50 nM cIAP1-BIR3 (Part #APT-11-370 Reaction Biology), 100 nM XIAP-BIR3 (Part #APT-11-351 Reaction Biology), 200 nM XIAP-BIR2 (Part #APT-11-470 Reaction Biology), 325 nM cIAP2-BIR2 (Part #APT-11-489 Reaction Biology), 50 nM cIAP2-BIR3 (Part #APT-11-372 Reaction Biology), 325 nM cIAP1-BIR2 (Part #APT-11-487 Reaction Biology). Compounds were plated using a HP Tecan D300 printer in a final total volume of 202 nl and DMSO concentration normalized across the 15-point, 3-fold dilution series. Peptide and probe were prepared at 2× relative to the concentrations above in binding buffer, 10 uL added to the prepared compound plates, and incubated for 60 minutes. LANCE Eu-W1024 (part #AD0401 Perkin Elmer #, vendor) was prepared at 2× concentration in binding buffer for final concentration of 2 nM, 10 uL added to each well, and plates incubated for 30 minutes. Plates were read on an ENVISION multifunction plate reader with […] laser excitation to obtain the 615 nm/665 nm emission ratio as indicative of probe:protein proximity. Data was analyzed using GraphPad PRISM and curves fit using log(inhibitor) vs. response—Variable slope (four […] method to obtain IC50 and pIC50 values.

XIAP-BIR3 = XIAP-BIR3 (Homo sapiens (Human), UniProt P98170); experiment: BIR binding assay (FRET competition), XIAP BIR3; conditions: for XIAP BIR3 vs BIR2 separation window: fold separation (FS) for XIAP
Outline: as §1

[2] = FRET competition, read-out: XIAP BIR2 (pIC50) (converted)

Sequence of XIAP-BIR3 (P98170 241-356): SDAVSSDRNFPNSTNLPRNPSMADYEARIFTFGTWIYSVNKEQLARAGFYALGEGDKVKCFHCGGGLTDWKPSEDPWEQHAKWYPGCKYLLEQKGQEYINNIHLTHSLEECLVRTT
Sequence of cIAP2-BIR3 (Q13489 238-349): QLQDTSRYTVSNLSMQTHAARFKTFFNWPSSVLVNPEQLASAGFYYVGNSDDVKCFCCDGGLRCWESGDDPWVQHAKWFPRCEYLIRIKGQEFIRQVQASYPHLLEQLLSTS
Sequence of cIAP1-BIR3 (Q13490 253-363): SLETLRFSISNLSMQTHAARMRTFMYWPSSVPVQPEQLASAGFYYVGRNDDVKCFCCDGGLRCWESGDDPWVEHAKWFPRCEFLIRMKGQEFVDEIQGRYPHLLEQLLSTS
Sequence of XIAP-BIR2 (P98170 124-240): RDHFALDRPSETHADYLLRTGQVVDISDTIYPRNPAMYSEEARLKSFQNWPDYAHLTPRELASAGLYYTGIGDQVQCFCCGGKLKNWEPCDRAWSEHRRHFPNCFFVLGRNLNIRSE
Sequence of cIAP1-BIR2 (Q13490 173-257): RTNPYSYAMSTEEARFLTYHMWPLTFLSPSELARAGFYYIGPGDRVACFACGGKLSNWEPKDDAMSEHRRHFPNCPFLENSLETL
Sequence of cIAP2-BIR2 (Q13489 158-242): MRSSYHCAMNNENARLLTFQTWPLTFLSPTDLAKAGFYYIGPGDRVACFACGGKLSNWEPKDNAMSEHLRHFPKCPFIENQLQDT

Structure (SMILES) | IC50 (cIAP2-BIR2) [nM] | EC50 [1] [nM] | IC50 (cIAP1-BIR3) [nM] | cIAP1 BIR3 vs BIR2 separation window (cIAP1-BIR3) | IC50 (cIAP2-BIR3) [nM] | cIAP2 BIR3 vs BIR2 separation window (cIAP2-BIR3) | IC50 (cIAP1-BIR2) [nM] | IC50 (XIAP-BIR2; [2]) [nM] | IC50 (XIAP-BIR3) [nM] | XIAP BIR3 vs BIR2 separation window (XIAP-BIR3) | IC50 (XIAP-BIR2) [nM]
C[C@@H]1CN(CC(=O)N2CC(C)(C)c3[nH]c(=O)c(Cc4ccc(F)cc4)cc32)[C@@H](CN2CCO[C@H](C(=O)Nc3cccc(NC(=O)[C@@H]4CN(C[C@H]5CN[C@H](C)CN5CC(=O)N5CC(C)(C)c6[nH]c(=O)c(Cc7ccc(F)cc7)cc65)CCO4)c3)C2)CN1 [Compound 140, (2S,2′S)-N,N′-(1,3-phenylene)bis(4-(((2R,5R)-1-(2-(6-(4-fluorobenzyl)-3,3-dimethyl-5-oxo-2,3,4,5-tetrahydro-1H-pyrrolo[3,2-b]pyridin-1-yl)-2-oxoethyl)-5-methylpiperazin-2-yl)methyl)morpholine-2-carboxamide)] | 1000 to 3160 | 63.1 to 316 | 7.94 to 15.8 | +++ (10,000>FS>1,000) | 7.94 to 15.8 | +++ (10,000>FS>1,000) | 1000 to 3160 | 10000 to 51300 | 15.8 to 31.6 | ++++ (FS>10,000) | 
Cc1c(NC(=O)[C@@H]2CN(C[C@H]3CN[C@H](C)CN3CC(=O)N3CC(C)(C)c4[nH]c(=O)c(Cc5ccc(F)cc5)cc43)CCO2)cccc1NC(=O)[C@@H]1CN(C[C@H]2CN[C@H](C)CN2CC(=O)N2CC(C)(C)c3[nH]c(=O)c(Cc4ccc(F)cc4)cc32)CCO1 [Compound 141, (2S,2′S)-N,N′-(2-methyl-1,3-phenylene)bis(4-(((2R,5R)-1-(2-(6-(4-fluorobenzyl)-3,3-dimethyl-5-oxo-2,3,4,5-tetrahydro-1H-pyrrolo[3,2-b]pyridin-1-yl)-2-oxoethyl)-5-methylpiperazin-2-yl)methyl)morpholine-2-carboxamide)] | 1000 to 3160 | 12.6 to 63.1 | 7.94 to 15.8 | +++ (10,000>FS>1,000) | 7.94 to 15.8 | +++ (10,000>FS>1,000) | 1000 to 3160 | 10000 to 51300 | 15.8 to 31.6 | +++ (10,000>FS>1,000) | 
C[C@@H]1CN(CC(=O)N2CC(C)(C)c3ncc(Nc4ccc(F)cc4)cc32)[C@@H](CN2CCO[C@H](COc3cccc(OC[C@@H]4CN(C[C@H]5CN[C@H](C)CN5CC(=O)N5CC(C)(C)c6ncc(Nc7ccc(F)cc7)cc65)CCO4)c3)C2)CN1 [Compound 143, -[6-(4-fluoroanilino)-3,3-dimethyl-2H-pyrrolo[3,2-b]pyridin-1-yl]-2-[(2R,5R)-2-[[(2S)-2-[[3-[[(2S)-4-[[(2R,5R)-1-[2-[6-(4-fluoroanilino)-3,3-dimethyl-2H-pyrrolo[3,2-b]pyridin-1-yl]-2-oxo-ethyl]-5-methyl-piperazin-2-yl]methyl]morpholin-2-yl]methoxy]phenoxy]methyl]morpholin-4-yl]methyl]-5-methyl-piperazin-1-yl]ethenone] | 10000 to 51300 | 316 to 3310 | 31.6 to 501 |  | 15.8 to 31.6 | ++++ (FS>10,000) | 10000 to 51300 | 10000 to 51300 | 31.6 to 501 | +++ (10,000>FS>1,000) | 
C[C@@H]1CN(CC(=O)N2CC(C)(C)c3ncc(N(C)c4ccc(F)cc4)cc32)[C@@H](CN2CCO[C@H](COc3cccc(OC[C@@H]4CN(C[C@H]5CN[C@H](C)CN5CC(=O)N5CC(C)(C)c6ncc(N(C)c7ccc(F)cc7)cc65)CCO4)c3)C2)CN1 [Compound 144] | 10000 to 51300 | 316 to 3310 | 31.6 to 501 | +++ (10,000>FS>1,000) | 31.6 to 501 | +++ (10,000>FS>1,000) | 10000 to 51300 | 10000 to 51300 | 31.6 to 501 | +++ (10,000>FS>1,000) | 
C[C@@H]1CN(CC(=O)N2CC(C)(C)c3ncc(Cc4ccc(F)cc4)cc32)[C@@H](CN2CCO[C@H](COc3cccc(OC[C@@H]4CN(C[C@H]5CN[C@H](C)CN5CC(=O)N5CC(C)(C)c6ncc(Cc7ccc(F)cc7)cc65)CCO4)c3)C2)CN1 [Compound 145] | 10000 to 51300 | 12.6 to 63.1 | 7.94 to 15.8 | +++ (10,000>FS>1,000) | 7.94 to 15.8 | +++ (10,000>FS>1,000) | 3160 to 10000 | 10000 to 51300 | 31.6 to 501 | ++++ (FS>10,000) | 
C[C@@H]1CN(CC(=O)N2CC(C)(C)c3ncc(Cc4cccnc4)cc32)[C@@H](CN2CCO[C@H](COc3cccc(OC[C@@H]4CN(C[C@H]5CN[C@H](C)CN5CC(=O)N5CC(C)(C)c6ncc(Cc7cccnc7)cc65)CCO4)c3)C2)CN1 [Compound 146] | 10000 to 51300 | 316 to 3310 | 1.38 to 7.94 | ++++ (FS>10,000) | 1.38 to 7.94 | ++++ (FS>10,000) | 10000 to 51300 |  | 31.6 to 501 | ++++ (FS>10,000) | 10000 to 51300
C[C@@H]1CN(CC(=O)N2CC(C)(C)c3ncc(Cc4ccccc4)cc32)[C@@H](CN2CCO[C@H](COc3cccc(OC[C@@H]4CN(C[C@H]5CN[C@H](C)CN5CC(=O)N5CC(C)(C)c6ncc(Cc7ccccc7)cc65)CCO4)c3)C2)CN1 [Compound 150] | 10000 to 51300 | 12.6 to 63.1 | 7.94 to 15.8 | +++ (10,000>FS>1,000) | 7.94 to 15.8 | ++++ (FS>10,000) | 3160 to 10000 |  | 15.8 to 31.6 | ++++ (FS>10,000) | 10000 to 51300
C[C@@H]1CN(CC(=O)N2CC(C)(C)c3[nH]c(=O)c(Cc4ccc(F)cc4)cc32)[C@@H](CN2CCN(CCc3cn(CCC(=O)N4CCN(C[C@H]5CN[C@H](C)CN5CC(=O)N5CC(C)(C)c6[nH]c(=O)c(Cc7ccc(F)cc7)cc65)[C@H](C)C4)nn3)C[C@H]2C)CN1 [Compound 154] | 1000 to 3160 | 63.1 to 316 | 7.94 to 15.8 | +++ (10,000>FS>1,000) | 7.94 to 15.8 | +++ (10,000>FS>1,000) | 1000 to 3160 | 10000 to 51300 | 7.94 to 15.8 | ++++ (FS>10,000) | 
C[C@@H]1CN(CC(=O)N2CC(C)(C)c3[nH]c(=O)c(Cc4ccc(F)cc4)cc32)[C@@H](CN2CCN(Cc3cn(CC(=O)N4CCN(C[C@H]5CN[C@H](C)CN5CC(=O)N5CC(C)(C)c6[nH]c(=O)c(Cc7ccc(F)cc7)cc65)[C@H](C)C4)nn3)C[C@H]2C)CN1 [Compound 155] | 1000 to 3160 | 316 to 3310 | 1.38 to 7.94 | +++ (10,000>FS>1,000) | 7.94 to 15.8 | +++ (10,000>FS>1,000) | 1000 to 3160 | 10000 to 51300 | 15.8 to 31.6 | ++++ (FS>10,000) | 
C[C@@H]1CN(CC(=O)N2CC(C)(C)c3[nH]c(=O)c(Cc4ccc(F)cc4)cc32)[C@@H](CN2CCN(Cc3cn(CCC(=O)N4CCN(C[C@H]5CN[C@H](C)CN5CC(=O)N5CC(C)(C)c6[nH]c(=O)c(Cc7ccc(F)cc7)cc65)[C@H](C)C4)nn3)C[C@H]2C)CN1 [Compound 156] | 1000 to 3160 | 63.1 to 316 | 15.8 to 31.6 | ++ (1,000>FS>100) | 7.94 to 15.8 | +++ (10,000>FS>1,000) | 1000 to 3160 | 10000 to 51300 | 15.8 to 31.6 | ++++ (FS>10,000) | 
